Reference: patent US20230286973A1, “PROTEIN SECRETION INHIBITORS” (KEZAR LIFE SCIENCES, priority 2020, published 2023)
Where two headings read alike, the source gives them in different places.

Assays:
[1] = system: PD1-ss+10aa/Gaussia Luciferase; test: Dox-Induced PD1-ss-Gluc Assay; assay type: cell-based; details: 24 hr Dox induction, 293FRT/TO cells, read-out: 24 hr Dox Inducible PD1ssGluc 293FRT/TO: Mean IC50
Outline: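 Gaussia luciferase fused downstream of the PD1 signal peptide plus 10 residues was expressed on doxycycline induction in stably transfected Flp-In 293 T-REx cells. Compounds were added with doxycycline and incubated at 37 °C, 5% CO2.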

[2] = system: TNFα-FL/Gaussia Luciferase; test: Dox Induced TNFα-FL-Gluc Assay; assay type: cell-based; details: for IC50: 24 hr Dox induction, 293FRT/TO cells, read-out: 24 hr Dox Inducible TNFaFLGluc 293FRT/TO: Mean IC50; for 24 hr Dox Inducible TNFaFLGluc 293FRT/TO: TNF/PD1: ratio of TNFaFLGluc IC50 to PD1ssGluc IC50
Outline: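 Hygromycin/blasticidin-selected Flp-In 293 T-REx cells, TNFα-FL/Gaussia luciferase fusion under T-REx control; overnight plating, then compound in DMSO/media with doxycycline at 37 °C, 5% CO2; stereo-undefined structures tested as mixtures.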

[3] = system: HER3-ss+4aa/Gaussia Luciferase; test: Dox-Induced Her3-ss-Gluc Assay; assay type: cell-based; details: 24 hr Dox induction, 293FRT/TO cells, read-out: 24 hr Dox Inducible Her3(ss + 4)Gluc 293FRT/TO: Mean IC50
Outline: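 Doxycycline-inducible HER3 signal sequence+4aa/Gaussia luciferase construct, stably integrated in Flp-In 293 T-REx cells; compound dilutions applied with doxycycline at 37° C., 5% CO2.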

[4] = system: IL-2-FL/Gaussia Luciferase; test: Dox Induced IL2-FL-Gluc Assay; assay type: cell-based; details: for IC50: 24 hr Dox induction, 293FRT/TO cells, read-out: 24 hr Dox Inducible IL2FLGluc 293FRT/TO: Mean IC50; for 24 hr Dox Inducible IL2FLGluc 293FRT/TO: IL2/PD1: ratio of IL2FLGluc IC50 to PD1ssGluc IC50
Outline: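 A hygromycin- and blasticidin-resistant 293 T-REx clone carrying inducible IL-2–Gaussia luciferase (full-length IL-2, residues 1-153) serves as the cell system. After overnight plating, the cells get test compounds together with doxycycline in DMSO/media and are incubated at 37° C, 5% CO2.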

[5] = system: multiple myeloma cell line NCI-H929; test: H929 Cell Viability Assay; assay type: cell-based, human; details: Homo sapiens, NCI-H929, 48 h, NCI-H929 cells, Celltiter-Glo
Outline: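 A 48-hour compound treatment of cells in 10% FBS RPMI medium was followed by luciferase-based viability quantification.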

[6] = system: multiple myeloma cell line U266B1; test: U266 Cell Viability Assay; assay type: cell-based, human; details: Homo sapiens, U-266, 48 h, U266B1 cells, Celltiter-Glo
Outline: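 After growth in serum-supplemented RPMI 1640, cells received serially diluted compound in DMSO/media and were kept 48 hours before a CellTiter-Glo luminescence readout.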

[7] = Liver Microsome Stability Assay (rat); details: rat liver microsomes, with NADPH, 1.0 uM compound
Method: (§1) Stability of a compound was assessed in the presence of liver microsomes from various sources—mouse, rat, monkey and human liver microsomes. 1.0 uM compound, 0.4% DMSO in 0.1 M Potassium Phosphate with 1.0 mg/mL liver microsomes, were incubated at 37° C. with or without 1 mM NADPH. The samples were quenched at 0, and 30 minutes.

[8] = Liver Microsome Stability Assay (mouse); details: mouse liver microsomes, with NADPH, 1.0 uM compound
Method: as §1

[9] = Liver Microsome Stability Assay (human); details: human liver microsomes, with NADPH, 1.0 uM compound
Method: as §1

[10] = Liver Microsome Stability Assay (monkey); details: monkey liver microsomes, with NADPH, 1.0 uM compound
Method: as §1

[11] = '<=>' given where both are I.A.

SMILES	IC50 [1] [nM]	IC50 [2] [nM]	24 hr Dox Inducible TNFaFLGluc 293FRT/TO: TNF/PD1 [2]	IC50 [3] [nM]	IC50 [4] [nM]	24 hr Dox Inducible IL2FLGluc 293FRT/TO: IL2/PD1 [4]	EC50 [5] [nM]	EC50 [6] [nM]	Liver Microsome Stability (Multiple Species): Rat - % Remaining after 30 min w/NADPH [7] [%]	Liver Microsome Stability (Multiple Species): Mouse - % Remaining after 30 min w/NADPH [8] [%]	Liver Microsome Stability (Multiple Species): Human - % Remaining after 30 min w/NADPH [9] [%]	Liver Microsome Stability (Multiple Species): Monkey - % Remaining after 30 min w/NADPH [10] [%]	IC50 ([1]; mean) [nM]	IC50 ([2]; mean) [nM]	24 hr Dox Inducible TNFaFLGluc 293FRT/TO: TNF/PD1 [2, 11]	IC50 ([3]; mean) [nM]	IC50 ([4]; mean) [nM]	24 hr Dox Inducible IL2FLGluc 293FRT/TO: IL2/PD1 [4, 11]
CC(=O)N1CCC(Oc2ccc(N3CCC[C@@H]3c3csc(NC(=O)c4cccn4Cc4ccnc(F)c4)n3)cn2)CC1 [Compound A155, (R)-N-(4-(1-(6-((1-acetylpiperidin-4-yl)oxy)pyridin-3-yl)pyrrolidin-2-yl)thiazol-2-yl)-1-((2-fluoropyridin-4-yl)methyl)-1H-pyrrole-2-carboxamide]	80	1340	16.8	86.6	189	2.4	2860	> 25000	8.23	16.9	1.07	0.17	–	–	–	–	–	–
N#CCCn1cnc(/C=C/c2csc(NC(=O)c3cccn3Cc3ccnc(F)c3)n2)c1 [Compound B108, (E)-N-(4-(2-(1-(2-cyanoethyl)-1H-imidazol-4-yl)vinyl)thiazol-2-yl)-1-((2-fluoropyridin-4-yl)methyl)-1H-pyrrole-2-carboxamide]	6040	> 25000	>4.14	> 25000	> 25000	>4.1	> 25000	> 25000	23.9	55.7	0.43	0.69	–	–	–	–	–	–
O=C(Nc1nc([C@H]2CCCN2c2ccc(CO)cc2)cs1)c1cccn1Cc1ccncc1 [Compound A57, (R)-N-(4-(1-(4-(hydroxymethyl)phenyl)pyrrolidin-2-yl)thiazol-2-yl)-1-(pyridin-4-ylmethyl)-1H-pyrrole-2-carboxamide]	17.7	287	16.2	38.3	45.1	2.5	500	> 25000	6.28	6.1	26.6	49.5	–	–	–	–	–	–
COC(=O)Nc1ccc(N2CCC[C@@H]2c2csc(NC(=O)c3cccn3Cc3ccnc(F)c3)n2)cc1 [Compound A144, methyl (R)-(4-(2-(2-(1-((2-fluoropyridin-4-yl)methyl)-1H-pyrrole-2-carboxamido)thiazol-4-yl)pyrrolidin-1-yl)phenyl)carbamate]	0.36	5.9	16.3	0.81	1.33	3.7	15.9	> 25000	34	20.2	36.4	10.7	–	–	–	–	–	–
O=C(Nc1nc(/C=C/c2cn(C3CCCCC3)cn2)cs1)c1cccn1CC1CCOCC1 [Compound D5, (E)-N-(4-(2-(1-cyclohexyl-1H-imidazol-4-yl)vinyl)thiazol-2-yl)-1-((tetrahydro-2H-pyran-4-yl)methyl)-1H-pyrrole-2-carboxamide]	–	–	–	–	–	–	18900	> 24700	0.16	0.54	0.18	0.17	776	> 25000	>32.2	21400	13500	17
COC(=O)Nc1ccc(N2CCC[C@@H]2c2csc(NC(=O)c3cccn3Cc3ccnc(F)c3)n2)nc1 [Compound A175, methyl (R)-(6-(2-(2-(1-((2-fluoropyridin-4-yl)methyl)-1H-pyrrole-2-carboxamido)thiazol-4-yl)pyrrolidin-1-yl)pyridin-3-yl)carbamate]	3.02	80.7	26.7	7.95	12.9	4.3	188	> 25000	0.32	1.57	1.38	0.22	–	–	–	–	–	–
O=C(Nc1nc(C#Cc2ccccn2)cs1)c1cccn1Cc1ccncc1 [Compound E3, N-(4-(pyridin-2-ylethynyl)thiazol-2-yl)-1-(pyridin-4-ylmethyl)-1H-pyrrole-2-carboxamide]	–	–	–	–	–	–	> 25000	> 25000	0.35	2.41	0.35	0.6	798	> 25000	>31.3	7180	13100	16
O=C(Nc1nc(/C=C/c2cccc(=O)[nH]2)cs1)c1cccn1Cc1ccnc(F)c1 [Compound B61]	> 25000	> 25000	<=>1.00	> 25000	> 25000	<=>1.0	> 25000	> 25000	12.3	9.41	0.96	0.5	–	–	–	–	–	–
O=C(Nc1nc(/C=C/c2cocn2)cs1)c1cccn1Cc1ccncc1 [Compound B1, (E)-N-(4-(2-(oxazol-4-yl)vinyl)thiazol-2-yl)-1-(pyridin-4-ylmethyl)-1H-pyrrole-2-carboxamide]	129	> 25000	>194	13000	19900	160	> 25000	> 25000	4.96	5.93	1.81	1.07	–	–	–	–	–	–
